In the assay the test system is hPSCs. As to the kind of experiment: sequential differentiation of hPSCs into endothelial cells on collagen IV, EC marker expression by flow cytometry / immunofluorescence. The assay is classed as cell-based, human. As for the experimental part: In the inventive method, hPSCs were cultured at a concentration of 1.25×10^4 per cm^2 on collagen IV plates for 12 days. In the “direct” method, the cells were treated with VEGF for the entire time. With the “sequential” method, the cells were supplemented with 10% serum and were not treated with VEGF until day 6. See FIG. 1 for a comparison of the protocols.
In our sequential method, hPSCs were cultured on collagen IV plates in media supplemented with 10% serum. After 6 days in culture, cells were strained and re-cultured in media supplemented with 50 ng/ml vascular endothelial growth factor (VEGF). Cells which were differentiated via direct means were cultured in the VEGF-supplemented media for all 12 days. EC markers were examined via immunofluorescence microscopy and flow cytometry. We tested hESC line, H9, as well as hiPSC line, MR31, which was derived from normal, fetal fibroblasts using three factors, Oct-4, Sox2, Klf4 (8, 9).
However, because sequentially-derived cells were only ˜5% VEcad+, we sought to improve upon the differentiation efficiency via biochemical means. To this end, we studied the addition of a TGFβ inhibitor, SB431542 (10) as well as angiogenic growth factors, bone morphogenetic protein-4 (BMP4) and Indian Hedgehog (lhh). For our TGFβ inhibitor studies, we examined the effects of SB431542 in the second half of differentiation plus high (50 ng/ml) or low (1 ng/ml) VEGF. […] Remarkably, VEcad expression increased regardless of high or low VEGF concentrations. […] Cells expressed approximately 1% Tra-1-60 indicating they were fully differentiated.
(In general: Flow cytometry measures light scatter and fluorescence of single cells or particles in a stream.)

The mark [1] stands for this setting: added in the second half of sequential differentiation plus VEGF, 12 days in culture.

As to `NC(=O)c1ccc(-c2nc(-c3ccc4c(c3)OCO4)c(-c3ccccn3)[nH]2)cc1` [SB431542], under setting [1], the “Expression of CD31” value is listed as “increased” and the “Expression of KDR” value is recorded as “increased”. Under “added in the second half of sequential differentiation plus high (50 ng/ml) or low (1 ng/ml) VEGF, 12 days in culture”, the “expression of mature EC marker, VEcad” value was “dramatic increase”.

B1: BMP4: angiogenic growth factor, bone morphogenetic protein-4 (protein, UniProt P12644 293-408, looked up)
Bone morphogenetic protein 4: SPKHHSQRARKKNKNCRRHSLYVDFSDVGWNDWIVAPPGYQAFYCHGDCPFPLADHLNSTNHAIVQTLVNSVNSSIPKACCVPTELSAISMLYLDEYDKVVLKNYQEMVVEGCGCR
Turning to B1, the endothelial differentiation capacity result (compared with levels seen with SB431542 supplementation) is reported as “not able to augment”.

For the origin of these results see patent US20180171291A1, “DERIVATION OF ENDOTHELIAL CELLS FROM MAMMALIAN PLUIRPOTENT STEM CELLS” (THE JOHNS HOPKINS UNIVERSITY, priority 2012, published 2018).
